According to patent USRE47689E1, “Compounds for treating spinal muscular atrophy” (PTC Therapeutics, Inc., priority 2011, dated 2019):
Where two headings read alike, the source gives them in different places.

Assays:
[1] = tested on: Smn protein; assay: Smn protein assay in cultured cells (SMN HTRF); format: cell-based, human; details: 48 hours; for maximum fold (Fold) increase of Smn protein: SMA patient fibroblast cells, 7-point concentration data, fold increase relative to vehicle control (SMN HTRF); for EC1.5x (concentration giving 1.5-fold Smn protein increase): SMA Type 1 patient fibroblast cells (GM03813), 7-point concentration curve, SMN HTRF, concentration producing 1.5 times Smn protein vs DMSO vehicle control, read-out: EC1.5x for Smn protein expression
Outline: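 Lysates in RIPA with protease inhibitors are incubated overnight at room temperature with HTRF anti-SMN antibodies. EC1.5x is derived from fold increase in ΔF over vehicle.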

[2] = tested on: SMN2 minigene (full length SMN2 minigene mRNA containing SMN2 exon 7); assay: SMN2 minigene mRNA splicing RT-qPCR assay in cultured cells; format: cell-based, human; details: Homo sapiens, HEK293-H, read-out: EC1.5x for production of full length SMN2 mRNA
Outline: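 HEK293H cells stably carrying the SMN2-A minigene treated 24 h at 37° C with compound (DMSO, 200× stock), then lysed. Multiplex RT-qPCR (SMN primers 0.4 μM final; 40 cycles) measures full-length exon 7-containing minigene mRNA, normalized to GAPDH and to vehicle; EC1.5x derived and binned by stars.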

[3] = HEK293H cells stably transfected with SMN2-A minigene, 24 hours, 7-point concentration curve, 1.5-fold relative to vehicle-treated cells

| Compound | melting point | maximum fold (Fold) increase of Smn protein [1] | EC (1.5-fold) [2, 3] [µM] | EC1.5x (concentration giving 1.5-fold Smn protein increase) [1] [nM] | EC (1.5-fold) ([2]; 24 h) [µM] |
| --- | --- | --- | --- | --- | --- |
| Cl.O=c1oc2cc(N3CCNCC3)ccc2cc1-c1nc2c(I)cccc2o1 [Compound 67, 3-(4-iodo-1,3-benzoxazol-2-yl)-7-(piperazin-1-yl)-2H-chromen-2-one hydrochloride] | 280 to 285 °C | * (maximum fold increase of ≤1.2) | 0.3 to 1 | – | – |
| Cc1cn2cc(-c3cc4ccc(N5CC[C@H](CN(C)C)C5)cc4oc3=O)nc2c(C)n1 [Compound 965, 7-{(3R)-3-[(dimethylamino)methyl]pyrrolidin-1-yl}-3-(6,8-dimethylimidazo[1,2-a]pyrazin-2-yl)-2H-chromen-2-one] | 206 to 208 °C | *** (fold increase between >1.35 and ≤1.5) | < 0.1 | < 300 | – |
| Cc1cn2cc(-c3cc4ccc(O[C@@H]5CCN(CCO)C5)cc4oc3=O)nc2c(C)n1 [Compound 892, 3-(6,8-dimethylimidazo[1,2-a]pyrazin-2-yl)-7-{[(3R)-1-(2-hydroxyethyl)pyrrolidin-3-yl]oxy}-2H-chromen-2-one] | 190 to 196 °C | **** (fold increase between >1.5 and ≤1.65) | < 0.1 | < 300 | – |
| Cc1nccn2cc(-c3cc4ccc(N5C[C@@H](C)N[C@@H](C)C5)cc4oc3=O)nc12 [Compound 552, 7-[(3R,5S)-3,5-dimethylpiperazin-1-yl]-3-(8-methylimidazo[1,2-a]pyrazin-2-yl)-2H-chromen-2-one] | 250 to 258 °C | **** (fold increase between >1.5 and ≤1.65) | < 0.1 | < 300 | – |
| Cc1cn2cc(-c3cc4ccc(CCCNCc5ccccn5)cc4oc3=O)nc2c(C)n1 [Compound 935, 3-(6,8-dimethylimidazo[1,2-a]pyrazin-2-yl)-7-{3-[(pyridin-2-ylmethyl)amino]propyl}-2H-chromen-2-one] | 177 to 180 °C | **** (fold increase between >1.5 and ≤1.65) | 0.1 to 0.3 | 300 to 1000 | – |
| CN1CCCN(c2ccc3cc(-c4nc5ccccc5o4)c(=O)oc3c2)CC1 [Compound 47, 3-(1,3-benzoxazol-2-yl)-7-(4-methyl-1,4-diazepan-1-yl)-2H-chromen-2-one] | 170 to 173 °C | ** (fold increase between >1.2 and ≤1.35) | 3 to 30 | – | – |
| O=c1oc2cc(CN3CCCCC3)ccc2cc1-c1nc2c(Cl)cccc2s1 [Compound 60, 3-(4-chloro-1,3-benzothiazol-2-yl)-7-(piperidin-1-ylmethyl)-2H-chromen-2-one] | 191 to 195 °C | ** (fold increase between >1.2 and ≤1.35) | 1 to 3 | – | – |
| O=c1oc2cc(N3CCCNCC3)ccc2cc1-c1cc2ccccn2n1 [Compound 192, 7-(1,4-diazepan-1-yl)-3-(pyrazolo[1,5-a]pyridin-2-yl)-2H-chromen-2-one] | 178 to 180 °C | ** (fold increase between >1.2 and ≤1.35) | 0.3 to 1 | – | – |
| Cc1cnc2nc(-c3cc4ccc(N5C[C@@H](C)N[C@@H](C)C5)cc4oc3=O)cn2c1 [Compound 243, 7-[(3R,5S)-3,5-dimethylpiperazin-1-yl]-3-(6-methylimidazo[1,2-a]pyrimidin-2-yl)-2H-chromen-2-one] | 308 to 310 °C | ** (fold increase between >1.2 and ≤1.35) | 0.3 to 1 | 3000 to 10000 | – |
| C[C@@H]1CN(c2cc(F)c3cc(-c4nc5c(F)cccc5o4)c(=O)oc3c2)C[C@H](C)N1 [Compound 367, 7-[(3R,5S)-3,5-dimethylpiperazin-1-yl]-5-fluoro-3-(4-fluoro-1,3-benzoxazol-2-yl)-2H-chromen-2-one] | 268 to 272 °C | *** (fold increase between >1.35 and ≤1.5) | 0.1 to 0.3 | – | – |
| Cc1cn2cc(-c3cc4ccc(N(C)[C@@H]5CCNC5)cc4oc3=O)nc2c(C)n1 [Compound 700, 3-(6,8-dimethylimidazo[1,2-a]pyrazin-2-yl)-7-{methyl[(3R)-pyrrolidin-3-yl]amino}-2H-chromen-2-one] | 192 to 202 °C | ***** (fold increase >1.65) | 0.1 to 0.3 | < 300 | – |
| Cc1nccc(-c2cc3ccc(N4CCNCC4)cc3oc2=O)n1.Cl [Cpd 274, 3-(2-methylpyrimidin-4-yl)-7-(piperazin-1-yl)-2H-chromen-2-one hydrochloride] | 200 °C (dec.) | ** (fold increase between >1.2 and ≤1.35) | – | – | 1 to 3 |
| Cc1cn2cc(-c3cc4ccc(CCCCN5CCNCC5)cc4oc3=O)nc2c(C)n1 [Compound 905, 3-(6,8-dimethylimidazo[1,2-a]pyrazin-2-yl)-7-[4-(piperazin-1-yl)butyl]-2H-chromen-2-one] | 187 to 191 °C | **** (fold increase between >1.5 and ≤1.65) | 1 to 3 | 1000 to 3000 | – |
| C[C@H]1CN(c2ccc3cc(-c4cn5cccc(F)c5n4)c(=O)oc3c2)CCN1C [Compound 585, 7-[(3S)-3,4-dimethylpiperazin-1-yl]-3-(8-fluoroimidazo[1,2-a]pyridin-2-yl)-2H-chromen-2-one] | 188 to 192 °C | *** (fold increase between >1.35 and ≤1.5) | 0.3 to 1 | – | – |
| Cc1cn2cc(-c3cc4ccc(N5CCN(CCF)[C@@H](C)C5)cc4oc3=O)nc2c(C)n1 [Compound 894, 3-(6,8-dimethylimidazo[1,2-a]pyrazin-2-yl)-7-[(3S)-4-(2-fluoroethyl)-3-methylpiperazin-1-yl]-2H-chromen-2-one] | 192 to 195 °C | ***** (fold increase >1.65) | < 0.1 | 300 to 1000 | – |
| C[C@@H]1CN(c2ccc3cc(-c4cn5cc(Cl)sc5n4)c(=O)oc3c2)C[C@H](C)N1 [Compound 473, 3-(2-chloroimidazo[2,1-b][1,3]thiazol-6-yl)-7-[(3R,5S)-3,5-dimethylpiperazin-1-yl]-2H-chromen-2-one] | 270 to 273 °C | ** (fold increase between >1.2 and ≤1.35) | 0.1 to 0.3 | – | – |
| CC(=O)O.CCN1CCN(c2ccc3cc(-c4ccc5nc(C)sc5c4)c(=O)oc3c2)C[C@@H]1C [Compound 777, 7-[(3S)-4-ethyl-3-methylpiperazin-1-yl]3-(2-methyl-1,3-benzothiazol-6-yl)-2H-chromen-2-one acetate] | 180 to 182 °C | * (maximum fold increase of ≤1.2) | 3 to 30 | – | – |
| CN1CCN(c2ccc3cc(-c4cn5cc(Cl)sc5n4)c(=O)oc3c2)CC1 [Compound 478, 3-(2-chloroimidazo[2,1-b][1,3]thiazol-6-yl)-7-(4-methylpiperazin-1-yl)-2H-chromen-2-one] | 268 to 270 °C | * (maximum fold increase of ≤1.2) | 0.3 to 1 | – | – |
